Consider five compounds from ChEMBL document CHEMBL1151277, “Sesquiterpene chromones from Ferula fukanensis and their nitric oxide production inhibitory effects” (J Nat Prod, 2005).

The IC50 is the concentration that inhibits the measured activity by half. Read a high IC50 as weaker potency in that assay.

Structures are written as SMILES. Converted amounts (≈) assume the structure as drawn.

In the first experiment the test system is RAW264.7. Put plainly: Inhibition of LPS and IFN-gamma-induced iNOS mRNA expression in mouse RAW264.7 cells for 8 hrs by RT-PCR analysis. In kind it is functional, cell-based.
Conditions: not given
With `CC(C)=CC(=O)/C=C(/C)CCC[C@]1(C)Oc2oc3cc(O)ccc3c(=O)c2[C@H]1C` (relative stereo) [FUKANEFUROCHROMONE D], the Activity entry is “Dose-dependent effect”.

In the next experiment the test system is RAW264.7. Put plainly: Inhibition of LPS and IFN-gamma-induced nitric oxide production in mouse RAW264.7 cells after 16 hrs by Griess assay. In kind it is functional, cell-based. The following applies: RAW264.7, 16 h. A general note: Griess reagent forms a coloured azo dye with nitrite.
The compound `CC(C)=CCC/C(C)=C/CC[C@]1(C)Oc2oc3cc(O)ccc3c(=O)c2[C@H]1C` gave a 50% inhibitory concentration (IC50) of 4.1 µg/mL (≈ 10.7 µM). `CC(C)=CC(=O)C/C(C)=C/CC[C@]1(C)Oc2oc3cc(O)ccc3c(=O)c2[C@H]1C` (relative stereo) [FUKANEFUROCHROMONE A]: 9.8 µg/mL (≈ 24.7 µM) corresponded to half-maximal inhibition (IC50). Compared with the last compound, the IC50 is about 2.4-fold higher.

`CC(C)=CC(=O)C/C(C)=C/CC[C@@]1(C)Oc2oc3cc(O)ccc3c(=O)c2[C@H]1C` (relative stereo) [FUKANEFUROCHROMONE B] yielded an IC50 of 8.9 µg/mL (≈ 22.4 µM). `CC(C)=CC(=O)/C=C(\C)CCC[C@]1(C)Oc2oc3cc(O)ccc3c(=O)c2[C@H]1C` (relative stereo) [FUKANEFUROCHROMONE C]: the IC50 was found to be 11.5 µg/mL (≈ 29 µM). On the same count and under the same terms, with `CC(C)=CC(=O)/C=C(/C)CCC[C@]1(C)Oc2oc3cc(O)ccc3c(=O)c2[C@H]1C` (relative stereo) [FUKANEFUROCHROMONE D] the figure was 9.5 µg/mL (≈ 24 µM).
